Laboratory results reported in PubChem BioAssay AID248 (DTP/NCI, 2004).
Values joined by “and” are separate entries in the source; they are usually repeats but may differ in a detail not shown here. Identical values can stand only once. Toxic doses and inconclusive results are not listed.

Tested on: L1210 leukemia ip in BDF1 mice, survival T/C
Assay: NCI In Vivo Anticancer Drug Screen. Data for tumor model L1210 Leukemia (intraperitoneal) in B6D2F1 (BDF1) mice
Conditions: endpoint: mean survival time, higher = longer survival
Outline: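 Tumor was transplanted into mice, which were then dosed with test compound or vehicle alone. Survival was recorded for each group, and the treated figure was expressed relative to the control figure.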

[1] = dose: 100.0 mg/kg/injection, schedule: Q01DX009 (ip), vehicle: Klucel (hydroxypropylcellulose) (HPC)
[2] = dose: 200.0 mg/kg/injection, schedule: Q01DX009 (ip), vehicle: Klucel (hydroxypropylcellulose) (HPC)
[3] = dose: 400.0 mg/kg/injection, schedule: Q01DX009 (ip), vehicle: Klucel (hydroxypropylcellulose) (HPC)
[4] = dose: 100.0 mg/kg/injection, schedule: Q01DX001 (ip), vehicle: saline
[5] = dose: 200.0 mg/kg/injection, schedule: Q01DX001 (ip), vehicle: saline
[6] = dose: 400.0 mg/kg/injection, schedule: Q01DX001 (ip), vehicle: saline
[7] = dose: 50.0 mg/kg/injection, schedule: Q01DX001 (ip), vehicle: saline
[8] = dose: 100.0 mg/kg/injection, schedule: Q04DX002 (ip), vehicle: Klucel (hydroxypropylcellulose) (HPC)
[9] = dose: 100.0 mg/kg/injection, schedule: Q04DX002 (ip), vehicle: saline
[10] = dose: 200.0 mg/kg/injection, schedule: Q04DX002 (ip), vehicle: saline
[11] = dose: 400.0 mg/kg/injection, schedule: Q04DX002 (ip), vehicle: saline
[12] = dose: 100.0 mg/kg/injection, schedule: Q01DX001 (ip), vehicle: carboxymethylcellulose (CMC)
[13] = dose: 200.0 mg/kg/injection, schedule: Q01DX001 (ip), vehicle: carboxymethylcellulose (CMC)
[14] = dose: 400.0 mg/kg/injection, schedule: Q01DX001 (ip), vehicle: carboxymethylcellulose (CMC)
[15] = dose: 200.0 mg/kg/injection, schedule: Q04DX002 (ip), vehicle: Klucel (hydroxypropylcellulose) (HPC)
[16] = dose: 400.0 mg/kg/injection, schedule: Q04DX002 (ip), vehicle: Klucel (hydroxypropylcellulose) (HPC)
[17] = dose: 100.0 mg/kg/injection, schedule: Q04DX003 (ip), vehicle: Klucel (hydroxypropylcellulose) (HPC)
[18] = dose: 200.0 mg/kg/injection, schedule: Q04DX003 (ip), vehicle: Klucel (hydroxypropylcellulose) (HPC)
[19] = dose: 400.0 mg/kg/injection, schedule: Q04DX003 (ip), vehicle: Klucel (hydroxypropylcellulose) (HPC)
[20] = dose: 100.0 mg/kg/injection, schedule: Q01DX009 (ip), vehicle: saline
[21] = dose: 25.0 mg/kg/injection, schedule: Q01DX009 (ip), vehicle: Klucel (hydroxypropylcellulose) (HPC)
[22] = dose: 50.0 mg/kg/injection, schedule: Q01DX009 (ip), vehicle: Klucel (hydroxypropylcellulose) (HPC)

## CC(Cl)CNC(=O)N(CC(C)Cl)N=O (stereo unspecified)
dose: 8.0 mg/kg/injection, schedule: Q01DX001 (ip), vehicle: carboxymethylcellulose (CMC)
  T/C: 108 % of control
dose: 16.0 mg/kg/injection, schedule: Q01DX001 (ip), vehicle: carboxymethylcellulose (CMC)
  T/C: 101 % of control
dose: 31.0 mg/kg/injection, schedule: Q01DX001 (ip), vehicle: carboxymethylcellulose (CMC)
  T/C: 97 % of control
dose: 62.0 mg/kg/injection, schedule: Q01DX001 (ip), vehicle: carboxymethylcellulose (CMC)
  T/C: 100 % of control
dose: 125.0 mg/kg/injection, schedule: Q01DX001 (ip), vehicle: carboxymethylcellulose (CMC)
  T/C: 97 % of control
dose: 250.0 mg/kg/injection, schedule: Q01DX001 (ip), vehicle: carboxymethylcellulose (CMC)
  T/C: 101 % of control
dose: 375.0 mg/kg/injection, schedule: Q01DX001 (ip), vehicle: carboxymethylcellulose (CMC)
  T/C: 103 % of control
dose: 500.0 mg/kg/injection, schedule: Q01DX001 (ip), vehicle: carboxymethylcellulose (CMC)
  T/C: 122 % of control
dose: 750.0 mg/kg/injection, schedule: Q01DX001 (ip), vehicle: carboxymethylcellulose (CMC)
  T/C: 197 % of control
dose: 1000.0 mg/kg/injection, schedule: Q01DX001 (ip), vehicle: carboxymethylcellulose (CMC)
  T/C: 240 % of control

## CC(=O)OC1C(SC(C)(C)C)C=CC(SC(C)(C)C)N1C(C)=O (stereo unspecified)
[1]
  T/C: 103 % of control
[2]
  T/C: 103 % of control
[3]
  T/C: 95 % of control

## CCCCC(=O)N/N=C/c1ccc(OC)c(OC)c1
[4]
  T/C: 100 % of control
[5]
  T/C: 94 % of control
[6]
  T/C: 91 % of control

## Nc1ccc(S(=O)(=O)O)c2ccccc12
[7]
  T/C: 94 % of control
[4]
  T/C: 94 % of control
[5]
  T/C: 103 % of control
[6]
  T/C: 94 % of control

## CCOC(=O)c1ccc(NC(=O)c2cccc(Cl)c2)cc1
[8]
  T/C: 94 % of control

## O=C1OC(C(O)C(O)C(O)CO)C(O)C1O (stereo unspecified)
[9]
  T/C: 96 % of control
[10]
  T/C: 96 % of control
[11]
  T/C: 108 % of control

## CC1C(=O)NN=C1c1ccc([N+](=O)[O-])cc1 (stereo unspecified)
[12]
  T/C: 100 % of control
[13]
  T/C: 100 % of control
[14]
  T/C: 94 % of control

## CN(C)CCCN1c2ccc(O)cc2Sc2ccc(Cl)cc21
dose: 3.1 mg/kg/injection, schedule: Q01DX009 (ip), vehicle: other
  T/C: 90 % of control
dose: 6.2 mg/kg/injection, schedule: Q01DX009 (ip), vehicle: other
  T/C: 94 % of control
dose: 12.5 mg/kg/injection, schedule: Q01DX009 (ip), vehicle: other
  T/C: 94 % of control
dose: 25.0 mg/kg/injection, schedule: Q01DX009 (ip), vehicle: other
  T/C: 97 % of control
dose: 50.0 mg/kg/injection, schedule: Q04DX003 (ip), vehicle: saline with Tween-80
  T/C: 103 % of control
dose: 100.0 mg/kg/injection, schedule: Q04DX003 (ip), vehicle: saline with Tween-80
  T/C: 103 % of control

## Cc1cccc(NC(=O)COc2ccc(C)cc2C)c1
[8]
  T/C: 103 % of control
[15]
  T/C: 92 % of control
[16]
  T/C: 95 % of control

## N#Cc1ccc(CCc2ccccc2)cc1
[7]
  T/C: 102 % of control
[4]
  T/C: 102 % of control
[5]
  T/C: 101 % of control
[6]
  T/C: 102 % of control

## N#CC1C(=O)NC(c2ccccc2)=CC1c1ccccc1 (stereo unspecified)
[4]
  T/C: 100 % of control
[5]
  T/C: 94 % of control
[6]
  T/C: 94 % of control

## Clc1ccc2c(c1)/C(=C/c1ccccc1Cl)c1cc(Cl)cc(Cl)c1-2
dose: 100.0 mg/kg/injection, schedule: Q01DX001 (ip), vehicle: Klucel (hydroxypropylcellulose) (HPC)
  T/C: 90 % of control
[1]
  T/C: 100 % of control
[17]
  T/C: 91 % of control
dose: 200.0 mg/kg/injection, schedule: Q01DX001 (ip), vehicle: Klucel (hydroxypropylcellulose) (HPC)
  T/C: 88 % of control
[2]
  T/C: 88 % of control
[18]
  T/C: 87 % of control
dose: 400.0 mg/kg/injection, schedule: Q01DX001 (ip), vehicle: Klucel (hydroxypropylcellulose) (HPC)
  T/C: 91 % of control
[3]
  T/C: 102 % of control
[19]
  T/C: 87 % of control

## C[n+]1ccc(/C(N)=N/O)cc1
dose: 25.0 mg/kg/injection, schedule: Q01DX009 (ip), vehicle: saline
  T/C: 94 % of control and 106 % of control
dose: 50.0 mg/kg/injection, schedule: Q01DX009 (ip), vehicle: saline
  T/C: 104 % of control and 105 % of control
[20]
  T/C: 101 % of control and 107 % of control
[9]
  T/C: 105 % of control
dose: 100.0 mg/kg/injection, schedule: Q04DX003 (ip), vehicle: saline
  T/C: 101 % of control
[10]
  T/C: 107 % of control
dose: 200.0 mg/kg/injection, schedule: Q04DX003 (ip), vehicle: saline
  T/C: 97 % of control
[11]
  T/C: 96 % of control

## CC(=Nc1cccc2ccccc12)c1c(O)cc(C)oc1=O
[1]
  T/C: 100 % of control
[8]
  T/C: 98 % of control
[2]
  T/C: 95 % of control
[15]
  T/C: 98 % of control
[3]
  T/C: 92 % of control
[16]
  T/C: 95 % of control

## COc1ccc(O)c(/C=N\N=C\c2cc(OC)ccc2O)c1
[1]
  T/C: 106 % of control
[2]
  T/C: 101 % of control
[3]
  T/C: 95 % of control

## CNC(=O)CCCOC(=O)c1ccc([N+](=O)[O-])cc1
dose: 25.0 mg/kg/injection, schedule: Q04DX002 (ip), vehicle: Klucel (hydroxypropylcellulose) (HPC)
  T/C: 108 % of control
dose: 50.0 mg/kg/injection, schedule: Q04DX002 (ip), vehicle: Klucel (hydroxypropylcellulose) (HPC)
  T/C: 108 % of control
[8]
  T/C: 104 % of control

## Cc1ccc(O)c(C2CC3CCC2C3)c1 (stereo unspecified)
dose: 100.0 mg/kg/injection, schedule: Q04DX003 (ip), vehicle: saline + alcohol
  T/C: 97 % of control
dose: 200.0 mg/kg/injection, schedule: Q04DX003 (ip), vehicle: saline + alcohol
  T/C: 92 % of control
dose: 400.0 mg/kg/injection, schedule: Q04DX003 (ip), vehicle: saline + alcohol
  T/C: 95 % of control

## O=S(=O)(O)SCCN1CCCCCCC1
[20]
  T/C: 95 % of control

## CN(CCN1CCCCC1)C(=O)C(O)(c1ccccc1)C1CCCCC1 (stereo unspecified)
dose: 75.0 mg/kg/injection, schedule: Q01DX001 (ip), vehicle: saline
  T/C: 96 % of control
dose: 150.0 mg/kg/injection, schedule: Q01DX001 (ip), vehicle: saline
  T/C: 97 % of control

## CN(C(=O)CCl)c1ccccc1
dose: 12.5 mg/kg/injection, schedule: Q01DX009 (ip), vehicle: Klucel (hydroxypropylcellulose) (HPC)
  T/C: 92 % of control
[21]
  T/C: 98 % of control
dose: 25.0 mg/kg/injection, schedule: Q04DX003 (ip), vehicle: Klucel (hydroxypropylcellulose) (HPC)
  T/C: 104 % of control
[22]
  T/C: 93 % of control
dose: 50.0 mg/kg/injection, schedule: Q04DX003 (ip), vehicle: Klucel (hydroxypropylcellulose) (HPC)
  T/C: 98 % of control
[17]
  T/C: 88 % of control

## CNC(=O)NC1C(CO)OC2OC(C)(C)OC21 (stereo unspecified)
[9]
  T/C: 100 % of control
[10]
  T/C: 97 % of control
[11]
  T/C: 94 % of control

## Nc1cccc(Br)n1
dose: 37.5 mg/kg/injection, schedule: Q04DX002 (ip), vehicle: saline with Tween-80
  T/C: 88 % of control
dose: 75.0 mg/kg/injection, schedule: Q04DX002 (ip), vehicle: saline with Tween-80
  T/C: 91 % of control
dose: 150.0 mg/kg/injection, schedule: Q04DX002 (ip), vehicle: saline with Tween-80
  T/C: 104 % of control

## CC1=CC(=C(c2ccccc2)c2ccccc2)C=C(C)C1=O
dose: 12.0 mg/kg/injection, schedule: Q01DX009 (ip), vehicle: Klucel (hydroxypropylcellulose) (HPC)
  T/C: 103 % of control
[21]
  T/C: 107 % of control
[22]
  T/C: 97 % of control
[1]
  T/C: 100 % of control
[17]
  T/C: 102 % of control
[18]
  T/C: 102 % of control
[19]
  T/C: 122 % of control

## O=C1CCCC/C1=C/c1ccccc1Cl
[1]
  T/C: 97 % of control
[17]
  T/C: 104 % of control
[2]
  T/C: 105 % of control
[18]
  T/C: 104 % of control
[3]
  T/C: 100 % of control
[19]
  T/C: 97 % of control

## O=S(c1ccccc1)c1ccc2cccccc1-2 (stereo unspecified)
[12]
  T/C: 91 % of control
[13]
  T/C: 94 % of control
[14]
  T/C: 100 % of control
